Results from US8889671B2, “Compounds and methods for treating bacterial infections” (AstraZeneca AB, priority 2013, dated 2014).

What was measured:
[1] = Plasma pharmacokinetics in S. pyogenes infected mice; format: in vivo; details: mouse, ip, with ABT
Description: Groups of satellite mice infected with S. pyogenes, as described above, were used for determining plasma concentrations. Dosing started 2 hours after infection and whole blood samples were taken at 0.5, 1, 2, 4, 6, 8, 12 and 24 h. Mice from the satellite PK study were euthanized by inhaled 5% isofluorane at specified time points post-treatment, mice were bled immediately by cardiac puncture. Heparinised blood samples were separated by centrifugation for five minutes at 13200 rpm. Plasma samples were stored at minus 80° C. before transfer to the client for analysis.
For the PK arm of the study, 3 mice per time point per unit dose were used. Due to unintended changes in the final work order, the 80 and 160 mg/kg dosing groups initially were administered Example 5 without prior treatment with aminobenzotriazole. Once this was realised, the remaining mice were re-distributed across the dosing groups and group size was reduced to two mice per time point.
Biological samples containing Example 5 were extracted using protein precipitation. To one volume of sample, 5 volumes of acetonitrile containing the internal standard (Glyburide) were added. The mixture was then mixed and the plate was centrifuged at 3200 rpm for 5 min. A 200 μL volume of the supernatant was dried down and, reconstituted in mobile phase and the mixture was injected onto liquid chromatography-mass spectrometry (LC-MS). A Sciex API 4000, controlled by Analyst v1.4.2, was used for the acquisition of the data and the quantification of Example 5.
The plasma profile for each dose group was obtained by calculating the average plasma concentration of compound in each of the two to three animals per time point. The area under the plasma concentration time curve from zero to infinity (AUC); maximum plasma drug concentration (Cmax); time to reach maximum concentration (tmax); and plasma half-life (t1/2) for each dose group was determined by non-compartmental analysis (WinNonLin 5.2, Pharsight). The non-compartmental Model 200 was used in the analysis.

Serratia marcescens = assay: In vitro antibacterial activity of Example 5 (MIC); format: cell-based

For `C[C@@H]1CN2c3c(cc4c(N5C(=O)OC[C@@H]5C)noc4c3F)CC3(C(=O)NC(=O)NC3=O)[C@H]2[C@H](C)O1` [Example 5, (2R,4S,4aS)-11-Fluoro-2,4-dimethyl-8-[(4S)-4-methyl-2-oxo-1,3-oxazolidin-3-yl]-1,2,4,4a-tetrahydro-2′H,6H-spiro[1,4-oxazino[4,3-a][1,2]oxazolo[4,5-g]quinoline-5,5′-pyrimidine]-2′,4′,6′(1′H,3′H)-trione], the AUC(0-inf) ([1]; nominal dose 10 mg/kg (measured 4.1)) was 32.6 µg·h/mL, the AUC(0-inf) ([1]; nominal dose 40 mg/kg (measured 25.4)) was 109 µg·h/mL and the AUC(0-inf) ([1]; nominal dose 60 mg/kg (measured 44.2)) was 153 µg·h/mL. For the same molecule, the AUC(0-inf) ([1]; nominal dose 80 mg/kg (measured 66.2)) was 251 µg·h/mL, the AUC(0-inf) ([1]; nominal dose 160 mg/kg (measured 142.0)) was 614 µg·h/mL and the MIC (Serratia marcescens) was greater than 64 µg/mL.
